The target of this experiment is T1, recombinant human β tryptase (Homo sapiens, UniProt P20231).
T1 construct: host or cells: yeast cells
The experiment in a line: Tryptase primary screen (chromogenic assay), IC50 and Ki determination. It counts as biochemical. The following applies: substrate S2366 0.5 mM (2×Km), room temperature, Ki=IC50/(1+[Substrate]/Km). On the procedure:
Tryptase inhibition activity is confirmed using either isolated human lung tryptase or recombinant human β tryptase expressed in yeast cells. Essentially equivalent results are obtained using isolated native enzyme or the expressed enzyme. The assay procedure employs a 96 well microplate (Costar 3590) using L-pyroglutamyl-L-prolyl-L-arginine-para-nitroanilide (S2366: Quadratech) as substrate (essentially as described by McEuen et. al. Biochem Pharm, 1996, 52, pages 331-340). Assays are performed at room temperature using 0.5 mM substrate (2×Km) and the microplate is read on a microplate reader (Beckman Biomek Plate reader) at 405 nm wavelength.
Materials and Methods for Tryptase primary screen (Chromogenic Assay)
S2366 (Stock solutions of 2.5 mM).
Purified recombinant beta Tryptase Stocks of 310 μg/mL.
• Add 60 μL of diluted substrate (final concentration of 500 μM in assay buffer) to each well • Add compound in duplicates, final concentration of 20 μM, volume 20 μL • Add enzyme at a final concentration of 50 ng/mL in a volume of 20 μL • Total volume for each well is 100 μL • Agitate briefly to mix and incubate at room temp in the dark for 30 minutes • Read absorbencies at […]
Each plate has the following controls: • Totals: 60 μL of substrate, 20 μL of buffer (with 0.2% final concentration of DMSO), • 20 μL of enzyme • Non-specific: 60 μL of substrate, 40 μL of buffer (with 0.2% DMSO) • Totals: 60 μL of substrate, 20 μL of buffer (No DMSO), 20 μL of enzyme • Non-specific: 60 μL of substrate, 40 μL of buffer (No DMSO)
The protocol is essentially the same as above except that the compound is added in duplicates at the following final concentrations: 0.01, 0.03, 0.1, 0.3, 1, 3, 10 μM (All dilutions carried out manually). For every assay, whether single point or IC50 determination, a standard compound is used to derive IC50 for comparison. From the IC50 value, the Ki can be calculated using the following formula: Ki=IC50/(1+[Substrate]/Km).

Values joined by “and” are separate entries in the source; they are usually repeats but may differ in a detail not shown here. Equal entries are not always repeated. Structures can show the parent of a compound that is named as a salt. Where two headings read alike, the source gives them in different places.

The record followed here is patent publication US20120142735A1, “DISUBSTITUTED [4-(5-AMINOMETHYL-PHENYL)-PIPERIDIN-1-YL]- 1H-INDOL-3-YL]-METHANONES” (SANOFI, priority 2009, published 2012).

T1 sequence (P20231 31-275): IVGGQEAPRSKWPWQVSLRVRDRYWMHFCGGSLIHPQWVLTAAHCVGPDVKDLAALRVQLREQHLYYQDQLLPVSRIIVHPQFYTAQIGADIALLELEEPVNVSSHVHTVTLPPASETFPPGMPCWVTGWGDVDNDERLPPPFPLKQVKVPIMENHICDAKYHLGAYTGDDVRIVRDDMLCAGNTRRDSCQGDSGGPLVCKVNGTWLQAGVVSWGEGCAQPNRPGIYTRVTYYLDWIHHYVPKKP

In the case of `CCCn1cc(C(=O)N2CCC(c3cc(CN)ccc3F)CC2)c2c(OC(F)(F)F)ccc(F)c21` [Example 11, [4-(5-Aminomethyl-2-fluoro-phenyl)-piperidin-1-yl]-(1-propyl-7-fluoro-4-trifluoromethoxy-1H-indol-3-yl)-methanone hydrochloride], under “Tryptase Ki”, the Ki is 208 nM and 186 nM.
For `COCCn1cc(C(=O)N2CCC(c3cc(CN)ccc3F)CC2)c2cc(OC)c(OC)cc21` [Example 20, [4-(5-Aminomethyl-2-fluoro-phenyl)-piperidin-1-yl]-[5,6-dimethoxy-1-(2-methoxy-ethyl)-1H-indol-3-yl]-methanone hydrochloride], the Ki (Tryptase Ki) was found to be 90 nM.
In the case of `COCCn1cc(C(=O)N2CCC(c3cc(CN)ccc3F)CC2)c2c(F)c(F)ccc21` [Example 19, [4-(5-Aminomethyl-2-fluoro-phenyl)-piperidin-1-yl]-[4,5-difluoro-1-(2-methoxy-ethyl)-1H-indol-3-yl]-methanone hydrochloride], the inhibitory constant (Ki) (Tryptase Ki) amounted to 142 nM.
Still for that read-out and setting: as for `COCCn1cc(C(=O)N2CCC(c3cc(CN)ccc3F)CC2)c2ccc(F)c(C)c21` [Example 2, [4-(5-Aminomethyl-2-fluoro-phenyl)-piperidin-1-yl]-[6-fluoro-1-(2-methoxy-ethyl)-7-methyl-1H-indol-3-yl]-methanone hydrochloride], the figure is 45 nM.
As to `COCCn1cc(C(=O)N2CCC(c3cc(CN)ccc3F)CC2)c2c(OC(F)(F)F)ccc(Cl)c21` [Example 10, [4-(5-Aminomethyl-2-fluoro-phenyl)-piperidin-1-yl]-[7-chloro-1-(2-methoxy-ethyl)-4-trifluoromethoxy-1H-indol-3-yl]-methanone hydrochloride], for the setting “Tryptase Ki”, the inhibition constant Ki is 146 nM and 122 nM.
`COCCn1cc(C(=O)N2CCC(c3cc(CN)ccc3F)CC2)c2c(F)ccc(C)c21` [Example 4, [4-(5-Aminomethyl-2-fluoro-phenyl)-piperidin-1-yl]-[4-fluoro-1-(2-methoxy-ethyl)-7-methyl-1H-indol-3-yl]-methanone hydrochloride]: the Ki (Tryptase Ki) turned out to be 26 nM.
The same measure, in the same setting: as for `COCCn1cc(C(=O)N2CCC(c3cc(CN)ccc3F)CC2)c2c(F)ccc(OC(F)(F)F)c21` [Example 5, [4-(5-Aminomethyl-2-fluoro-phenyl)-piperidin-1-yl]-[4-fluoro-1-(2-methoxy-ethyl)-7-trifluoromethoxy-1H-indol-3-yl]-methanone hydrochloride], the figure is 322 nM.
Consider `COCCn1cc(C(=O)N2CCC(c3cc(CN)ccc3F)CC2)c2cc(F)cc(C)c21` [Example 3, [4-(5-Aminomethyl-2-fluoro-phenyl)-piperidin-1-yl]-[5-fluoro-1-(2-methoxy-ethyl)-7-methyl-1H-indol-3-yl]-methanone hydrochloride], for which the Ki (Tryptase Ki) was determined as 35 nM.
As to `COCCn1cc(C(=O)N2CCC(c3cc(CN)ccc3F)CC2)c2c(F)cc(F)cc21` [Example 18, [4-(5-Aminomethyl-2-fluoro-phenyl)-piperidin-1-yl]-[4,6-difluoro-1-(2-methoxy-ethyl)-1H-indol-3-yl]-methanone hydrochloride], for the setting “Tryptase Ki”, the Ki was 192 nM.
Take `COCCn1cc(C(=O)N2CCC(c3cc(CN)ccc3F)CC2)c2c(Cl)ccc(OC(F)(F)F)c21` [Example 12, [4-(5-Aminomethyl-2-fluoro-phenyl)-piperidin-1-yl]-[4-chloro-1-(2-methoxy-ethyl)-7-trifluoromethoxy-1H-indol-3-yl]-methanone hydrochloride]: the inhibitory constant (Ki) (Tryptase Ki) is 171 nM.
`NCc1ccc(F)c(C2CCN(C(=O)c3cn(CCOC(F)(F)F)c4c(F)ccc(OC(F)(F)F)c34)CC2)c1` [Example 21, [4-(5-Aminomethyl-2-fluoro-phenyl)-piperidin-1-yl]-[7-fluoro-4-trifluoromethoxy-1-(2-trifluoromethoxy-ethyl)-1H-indol-3-yl]-methanone hydrochloride]: the inhibition constant (Ki) (Tryptase Ki) was 487 nM.
Consider `COCCn1cc(C(=O)N2CCC(c3cc(CN)ccc3F)CC2)c2c(C)ccc(F)c21` [Example 15, [4-(5-Aminomethyl-2-fluoro-phenyl)-piperidin-1-yl]-[7-fluoro-1-(2-methoxy-ethyl)-4-methyl-1H-indol-3-yl]-methanone hydrochloride], for which the inhibition constant (Ki) (Tryptase Ki) worked out at 45 nM.
The same measure, in the same setting: as for `CCCCn1cc(C(=O)N2CCC(c3cc(CN)ccc3F)CC2)c2c(OC(F)(F)F)ccc(F)c21` [Example 7, [4-(5-Aminomethyl-2-fluoro-phenyl)-piperidin-1-yl]-(1-butyl-7-fluoro-4-trifluoromethoxy-1H-indol-3-yl)-methanone hydrochloride], the figure is 365 nM; as for `COCCn1cc(C(=O)N2CCC(c3cc(CN)ccc3F)CC2)c2c(Cl)ccc(C)c21` [Example 6, [4-(5-Aminomethyl-2-fluoro-phenyl)-piperidin-1-yl]-[4-chloro-1-(2-methoxy-ethyl)-7-methyl-1H-indol-3-yl]-methanone hydrochloride], 35 nM; as for `COCCn1cc(C(=O)N2CCC(c3cc(CN)ccc3F)CC2)c2c(F)ccc(Cl)c21` [Example 9, [4-(5-Aminomethyl-2-fluoro-phenyl)-piperidin-1-yl]-[7-chloro-4-fluoro-1-(2-methoxy-ethyl)-1H-indol-3-yl]-methanone hydrochloride], 49 nM and 32 nM.
Same read-out and setting: as for `COCCn1cc(C(=O)N2CCC(c3cc(CN)ccc3F)CC2)c2cc(Cl)cc(C)c21` [Example 1, [4-(5-Aminomethyl-2-fluoro-phenyl)-piperidin-1-yl]-[5-chloro-1-(2-methoxy-ethyl)-7-methyl-1H-indol-3-yl]-methanone hydrochloride], the figure is 116 nM.
For the compound `COCCn1cc(C(=O)N2CCC(c3cc(CN)ccc3F)CC2)c2c(F)ccc(F)c21` [Example 17, [4-(5-Aminomethyl-2-fluoro-phenyl)-piperidin-1-yl]-[4,7-difluoro-1-(2-methoxy-ethyl)-1H-indol-3-yl]-methanone], the inhibitory constant (Ki) (read-out: Tryptase Ki) turned out to be 25 nM.
As to `COCCn1cc(C(=O)N2CCC(c3cc(CN)ccc3F)CC2)c2c(Cl)ccc(Cl)c21` [Example 8, [4-(5-Aminomethyl-2-fluoro-phenyl)-piperidin-1-yl]-[4,7-dichloro-1-(2-methoxy-ethyl)-1H-indol-3-yl]-methanone hydrochloride], for the setting “Tryptase Ki”, the inhibition constant Ki is 134 nM and 74 nM.
Consider `COCCn1cc(C(=O)N2CCC(c3cc(CN)ccc3F)CC2)c2c(C(F)(F)F)ccc(F)c21` [Example 13, [4-(5-Aminomethyl-2-fluoro-phenyl)-piperidin-1-yl]-[7-fluoro-1-(2-methoxy-ethyl)-4-trifluoromethyl-1H-indol-3-yl]-methanone hydrochloride], for which the Ki (Tryptase Ki) was 129 nM.
With `COCCn1cc(C(=O)N2CCC(c3cc(CN)ccc3F)CC2)c2c(C(F)(F)F)ccc(OC)c21` [Example 14, [4-(5-Aminomethyl-2-fluoro-phenyl)-piperidin-1-yl]-[7-methoxy-1-(2-methoxy-ethyl)-4-trifluoromethyl-1H-indol-3-yl]-methanone hydrochloride], under “Tryptase Ki”, the Ki is 48 nM.
In the case of `Cc1ccc(F)c2c(C(=O)N3CCC(c4cc(CN)ccc4F)CC3)cn(CCOC(F)(F)F)c12` [Example 22], the Ki (Tryptase Ki) was determined as 731 nM.
Consider `COCCn1cc(C(=O)N2CCC(c3cc(CN)ccc3F)CC2)c2c(Cl)cc(Cl)cc21` [Example 16, [4-(5-Aminomethyl-2-fluoro-phenyl)-piperidin-1-yl]-[4,6-dichloro-1-(2-methoxy-ethyl)-1H-indol-3-yl]-methanone hydrochloride], for which the Ki (Tryptase Ki) is 649 nM.
